Experimental data: publication PMC10709440, “High-throughput ligand profile characterization in novel cell lines expressing seven heterologous insect olfactory receptors for the detection of volatile plant biomarkers” (Scientific Reports, 2023)

Assays:
[1] = biological target: T1, Drosophila OR47a (Drosophila melanogaster, UniProt P81921); assay: cell-based; design: GCaMP6 calcium fluorescence in stable HEK293 OR+ORCO lines; peak dF normalised to 50 uM VUAA1 (=1); details: HEK293; relative to 50 uM VUAA1 response; below 0.05 set to 0; read-out: % activation
T1 construct: expressed in transfected cells
T1 sequence (P81921 1-385): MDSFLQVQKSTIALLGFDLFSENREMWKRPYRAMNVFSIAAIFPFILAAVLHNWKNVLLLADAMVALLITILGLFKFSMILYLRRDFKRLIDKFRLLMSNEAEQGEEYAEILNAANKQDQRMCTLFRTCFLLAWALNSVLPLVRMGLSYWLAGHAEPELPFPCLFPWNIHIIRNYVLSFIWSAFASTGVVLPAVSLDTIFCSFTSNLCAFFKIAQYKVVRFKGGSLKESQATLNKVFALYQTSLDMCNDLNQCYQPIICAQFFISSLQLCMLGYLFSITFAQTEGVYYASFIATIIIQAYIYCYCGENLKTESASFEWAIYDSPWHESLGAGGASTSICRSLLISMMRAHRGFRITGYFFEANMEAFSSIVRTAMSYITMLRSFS
T1 sequence (Q9VNB5 1-486 partner): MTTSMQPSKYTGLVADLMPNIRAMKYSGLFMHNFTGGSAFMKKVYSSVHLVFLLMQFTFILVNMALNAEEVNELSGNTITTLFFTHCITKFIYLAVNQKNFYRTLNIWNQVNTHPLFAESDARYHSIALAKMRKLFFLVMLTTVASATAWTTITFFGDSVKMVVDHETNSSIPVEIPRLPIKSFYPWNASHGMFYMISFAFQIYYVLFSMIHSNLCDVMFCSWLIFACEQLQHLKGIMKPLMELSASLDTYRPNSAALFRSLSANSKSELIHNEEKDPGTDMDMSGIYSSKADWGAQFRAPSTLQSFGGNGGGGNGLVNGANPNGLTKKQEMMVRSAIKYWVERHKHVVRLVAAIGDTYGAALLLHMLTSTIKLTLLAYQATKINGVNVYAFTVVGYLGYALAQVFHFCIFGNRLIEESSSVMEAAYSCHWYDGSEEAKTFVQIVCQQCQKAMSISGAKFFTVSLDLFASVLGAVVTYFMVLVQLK
Method: (§1) Twelve thousand to 18,000 cells were plated into each well of a black wall, transparent bottom 384-well microplate (Greiner) 48 h or 72 h before the measurements and were simultaneously treated with 1 μg/mL doxycycline. Typically, three columns were filled with one OR expressing cell line, each row was treated with the same compound (three technical replicates for each OR), and each responsive VOC-OR combination was measured at least three times on different days. The plate has 24 columns, thus we could record responses in up to eight different cell lines in each plate. On the day of the experiment, the growth medium was replaced with 20 µL assay buffer/well (140 mM NaCl, 5 mM KCl, 2 mM CaCl2, 1 mM MgCl2, 5 mM HEPES-Na, 20 mM glucose, pH 7.3, 340 mOsm). […] Baseline fluorescence (F0) was recorded for 5 s, after which 7 µL VOC buffer (140 mM NaCl, 5 mM KCl, 2 mM CaCl2, 1 mM MgCl2, 5 mM HEPES-Na, 31 mM glucose, 0.1% DMSO, pH 7.3, 340 mOsm) was injected into each well in one row and the fluorescence response was recorded for an additional 30 s, at a rate of one read/sec. VOC solutions (VOC buffer with 4× concentration of the final measured VOC concentration, 9 µL/well was injected) were measured on the same wells in a second round with the same protocol. Each individual concentration of a specific VOC sample was recorded in three wells for the same cell line on the same microplate. The raw data were exported in xls file format, F0 and FMAX values, and the fluorescence intensity changes (∆F) were calculated in Excel (Microsoft) (Supplementary file Data summary.xlsx) using the following equation: ΔF=FMAX-F0/F0 (see also Fig. 1C). On each plate, we recorded the response of each cell line to 50 µM VUAA1. The average of these ∆F values of each cell line were used to calculate the VUAA1-normalized values for the rest of the plate, by dividing VOC response ∆F values by the average VUAA1 response ∆F value of the corresponding OR cell line. Each VOC-OR combination was measured three times as tec The recorded FMAX, F0, ∆F, VUAA1-normalized ∆F values, as well as the OR name, the name of the tested sample, and the final concentration for each well were copied into supplementary file Data summary.xlsx, that was used to summarize all the plates recorded. Here, the averages of the measurements were calculated for each receptor-VOC-concentration combination. […] Each VOC was measured at 1, 10, and 100 µM final concentration on each receptor. VUAA1-normalized response was calculated as described in methods. Values are averages of at least three biological replicates for responsive combinations and two for the non-responsive combinations. The chemical structures of the strong and medium ligands are shown for each cell line. Heat map: white-green colors correspond to the lowest-highest values measured for each cell line.

[2] = biological target: T2, Drosophila OR98a (Drosophila melanogaster, UniProt Q9VAZ3); assay: cell-based; design: GCaMP6 calcium fluorescence in stable HEK293 OR+ORCO lines; peak dF normalised to 50 uM VUAA1 (=1); details: HEK293; relative to 50 uM VUAA1 response; below 0.05 set to 0; read-out: % activation
T2 construct: expressed in transfected cells
T2 sequence (Q9VAZ3 1-397): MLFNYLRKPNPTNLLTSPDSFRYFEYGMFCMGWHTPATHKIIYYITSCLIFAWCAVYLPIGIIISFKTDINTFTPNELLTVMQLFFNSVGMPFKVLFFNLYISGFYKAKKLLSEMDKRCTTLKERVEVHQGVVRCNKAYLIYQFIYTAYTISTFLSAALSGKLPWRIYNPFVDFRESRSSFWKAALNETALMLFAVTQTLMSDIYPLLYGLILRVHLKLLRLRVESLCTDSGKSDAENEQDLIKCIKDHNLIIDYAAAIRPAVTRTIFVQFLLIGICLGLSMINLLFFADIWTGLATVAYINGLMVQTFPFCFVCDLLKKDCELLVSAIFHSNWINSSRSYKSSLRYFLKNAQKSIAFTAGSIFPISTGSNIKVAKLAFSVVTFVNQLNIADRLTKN
T2 sequence (Q9VNB5 1-486 partner): T1 sequence (Q9VNB5 1-486 partner)
Method: as §1

## CC/C=C/CCO [e3-hexenol]
[1]
  activity at 1 µM: 6.26%
  activity at 10 µM: 0%
  activity at 100 µM: 14%
[2]
  activity at 1 µM: 0%
  activity at 10 µM: 0%
  activity at 100 µM: 0%
